Data published in patent US8791139B2, “Anthranilic diamide derivatives” (Bayer Cropscience AG, priority 2010, dated 2014).
Several values for one entry are separate records, joined by “and”; a condition that tells them apart may be missing. Equal values may be shown once. Read-outs that look alike come from different tables or passages of the source. Each block holds one compound with its values, some of them ahead of it.

Experiment: logP by HPLC on reversed-phase columns (C18), EEC Directive 79/831 Annex V.A8
Format: physicochemical
Settings: for logP: HPLC reversed-phase C18, acidic range pH 2.7
Experimental: The logP values reported in the table above and in the Preparation Examples were determined in accordance with EEC Directive 79/831 Annex V.A8 by HPLC (High Performance Liquid Chromatography) on reversed-phase columns (C18), with the following methods:
The LC-MS determination in the acidic range is carried out at pH 2.7 using the mobile phases 0.1% aqueous formic acid and acetonitrile (contains 0.1% formic acid), linear gradient from 10% acetonitrile to 95% acetonitrile
Calibration was carried out using unbranched alkan-2-ones (having from 3 to 16 carbon atoms) with known logP values (the logP values were determined by the retention times using linear interpolation between two successive alkanones).

[1] = reversed-phase HPLC column (C18), pH 2.7, HPLC reversed-phase C18, acidic range pH 2.7, Preparation Examples (intermediates), read-out: logP
[2] = reversed-phase HPLC column (C18), pH 2.7, HPLC reversed-phase C18, acidic range pH 2.7, 0.1% aqueous formic acid/acetonitrile, table of compounds of formula (I), read-out: log P
[3] = Preparation Examples (intermediates)

Compound: CNC(=O)c1cc(Cl)cc(C)c1NC(=O)c1cc(CNS(=O)(=O)c2ccccc2Cl)nn1-c1ncccc1Cl [Example 37]
chromatographic logP (pH 2.7, log P): 2.58

Compound: Cc1cc(Cl)cc(C(=O)NC(C)C)c1NC(=O)c1cc(CN(Cc2cc(C(F)(F)F)cc(C(F)(F)F)c2)S(C)(=O)=O)nn1-c1ncccc1Cl [Example 57]
chromatographic logP [2]: 4.26

Compound: CNC(=O)c1cc(Cl)cc(C)c1NC(=O)c1cc(CNS(=O)(=O)c2cc(C(F)(F)F)cc(C(F)(F)F)c2)nn1-c1ncccc1Cl [Example 36]
chromatographic logP [2]: 3.62

Compound: CNC(=O)c1cc(Cl)cc(C)c1NC(=O)c1cc(N2CCN(Cc3ccc(Cl)nc3)C2=O)nn1-c1ncccc1Cl [Example 28]
chromatographic logP (pH 2.7, log P): 2.64

Compound: CN(Cc1cc(C(=O)O)n(-c2ncccc2Cl)n1)S(=O)(=O)Cc1cc(C(F)(F)F)cc(C(F)(F)F)c1 [Example No. III-1, 3-{[{[3,5-bis(trifluoromethyl)benzyl]sulphonyl}(methyl)amino]methyl}-1-(3-chloropyridin-2-yl)-1H-pyrazole-5-carboxylic acid]
chromatographic logP [1]: 3.07

Compound: CCOC(=O)c1cc(C(C)=O)nn1-c1ncccc1Cl [Example No. VII-a, ethyl 3-acetyl-1-(3-chloropyridin-2-yl)-1H-pyrazole-5-carboxylate]
chromatographic logP [1]: 2.31

Compound: Cc1cc(C#N)cc(C(=O)NC(C)C2CC2)c1NC(=O)c1cc(CN(Cc2cc(C(F)(F)F)cc(C(F)(F)F)c2)S(C)(=O)=O)nn1-c1ncccc1Cl (centres unmarked) [Example 61]
chromatographic logP [2]: 4.12

Compound: Cc1cc(Cl)cc(C(=O)NC(C)C)c1NC(=O)c1cc(CNS(=O)(=O)c2ccccc2Cl)nn1-c1ncccc1Cl [Example 38]
chromatographic logP (pH 2.7, log P): 3.06

Compound: Cc1cc(Cl)cc(C(=O)NC2CC2)c1NC(=O)c1cc(CNS(=O)(=O)c2ccccc2Cl)nn1-c1ncccc1Cl [Example 39]
chromatographic logP (pH 2.7, log P): 2.8

Compound: O=C(O)c1cc([N+](=O)[O-])nn1-c1ncccc1Cl [Example No. XVII, 1-(3-Chloropyridin-2-yl)-3-nitro-1H-pyrazole-5-carboxylic acid]
chromatographic logP [1]: 0.9

Compound: COC(=O)c1cc(C#Cc2ccc(OC(F)(F)F)cc2)nn1-c1ncccc1Cl [Example No. VII, methyl 1-(3-chloropyridin-2-yl)-3-{[4-(trifluoromethoxy)phenyl]ethinyl}-1H-pyrazole-5-carboxylate]
logP [3]: 4.46

Compound: Cc1cc(Cl)cc(C(=O)NC(C)C)c1NC(=O)c1cc(CNS(=O)(=O)c2cccc(C(F)(F)F)c2)nn1-c1ncccc1Cl [Example 48]
chromatographic logP (pH 2.7, log P): 3.43

Compound: COC(=O)c1cc(C(=O)O)nn1-c1ncccc1Cl [Example No. VIII-e, 1-(3-chloropyridin-2-yl)-5-(methoxycarbonyl)-1H-pyrazole-3-carboxylic acid]
chromatographic logP [1]: 1.38

Compound: Cc1cc(Cl)cc(C(N)=O)c1NC(=O)c1cc(C#Cc2ccc(OC(F)(F)F)cc2)nn1-c1ncccc1Cl [Example 9]
chromatographic logP (pH 2.7, log P): 3.94

Compound: Cc1cc(C#N)cc(C(=O)NC(C)C)c1NC(=O)c1cc(Nc2cccc(C(F)(F)F)c2)nn1-c1ncccc1Cl [Example 75]
chromatographic logP (pH 2.7, log P): 3.66

Compound: Cc1cc(C#N)cc(C(=O)NC(C)(C)C)c1NC(=O)c1cc(C(=O)Cn2nnc(C(F)(F)F)n2)nn1-c1ncccc1Cl [Example 16]
chromatographic logP (pH 2.7, log P): 3.66

Compound: O=C(O)c1cc(Nc2ccc(C(F)(F)F)cn2)nn1-c1ncccc1Cl [Example No. III-10, 1-(3-Chloropyridin-2-yl)-3-{[5-(trifluoromethyl)pyridin-2-yl]amino}-1H-pyrazole-5-carboxylic acid]
chromatographic logP [1]: 2.79

Compound: CCOC(=O)c1cc(C(=O)C(=O)c2ccc(Cl)cc2Cl)nn1-c1ncccc1Cl [Example No. VIII, ethyl 1-(3-chloropyridin-2-yl)-3-[(2,4-dichlorophenyl)(oxo)acetyl]-1H-pyrazole-5-carboxylate]
chromatographic logP [1]: 4.29

Compound: CNC(=O)c1cc(C#N)cc(C)c1NC(=O)c1cc(C#Cc2ccc(OC)cc2)nn1-c1ncccc1Cl [Example 8]
chromatographic logP (pH 2.7, log P): 3.11

Compound: COC(=O)c1cc(Cc2ccc(C(F)(F)F)nc2)nn1-c1ncccc1Cl [Example No. VII-c, methyl 1-(3-chloropyridin-2-yl)-3-{[6-(trifluoromethyl)pyridin-3-yl]methyl}-1H-pyrazole-5-carboxylate]
chromatographic logP [1]: 2.86

Compound: Cc1cc(Cl)cc(C(=O)NC(C)C)c1NC(=O)c1cc(CNS(=O)(=O)Cc2ccc(C(F)(F)F)cc2)nn1-c1ncccc1Cl [Example 50]
chromatographic logP (pH 2.7, log P): 2.28

Compound: CNC(=O)c1cc(C#N)cc(C)c1NC(=O)c1cc(N2CCN(Cc3ccc(Cl)nc3)C2=O)nn1-c1ncccc1Cl [Example 29]
chromatographic logP (pH 2.7, log P): 2.31

Compound: O=[N+]([O-])c1ccn(-c2ncccc2Cl)n1 [Example No. XVI, 3-Chloro-2-(3-nitro-1H-pyrazol-1-yl)pyridine]
chromatographic logP [1]: 1.83

Compound: O=C(O)c1cc(C#Cc2ccc(OC(F)(F)F)cc2)nn1-c1ncccc1Cl [Example No. III-3, 1-(3-chloropyridin-2-yl)-3-{[4-(trifluoromethoxy)phenyl]ethynyl}-1H-pyrazole-5-carboxylic acid]
chromatographic logP [1]: 3.36

Now from value to compound:

chromatographic logP [1]: 4.82
Compound: CCOC(=O)c1cc(N2CCN(c3cc(C(F)(F)F)cc(C(F)(F)F)c3)C2=O)nn1-c1ncccc1Cl [Example No. VII-b, ethyl 3-{3-[3,5-bis(trifluoromethyl)phenyl]-2-oxoimidazolidin-1-yl}-1-(3-chloropyridin-2-yl)-1H-pyrazole-5-carboxylate]

chromatographic logP [2]: 3.95
Compound: Cc1cc(Cl)cc(C(=O)NC(C)C)c1NC(=O)c1cc(CNS(=O)(=O)Cc2cc(C(F)(F)F)cc(C(F)(F)F)c2)nn1-c1ncccc1Cl [Example 53]

chromatographic logP [1]: 1.67
Compound: COC(=O)c1cc(C2CO2)nn1-c1ncccc1Cl (centres unmarked) [Example No. XI, Methyl 1-(3-chloropyridin-2-yl)-3-(oxiran-2-yl)-1H-pyrazole-5-carboxylate]

chromatographic logP [1]: 3.47
Compound: O=C(O)c1cc(N2CCN(c3cc(C(F)(F)F)cc(C(F)(F)F)c3)C2=O)nn1-c1ncccc1Cl [Example No. III-5, 3-{3-[3,5-bis(trifluoromethyl)phenyl]-2-oxoimidazolidin-1-yl}-1-(3-chloropyridin-2-yl)-1H-pyrazole-5-carboxylic acid]

logP [3]: 3.37 and 3.49
Compound: Methyl 1-(3-chloropyridin-2-yl)-3-{(E)-2-[5-(trifluoromethyl)-2H-tetrazol-2-yl]vinyl}-1H-pyrazole-5-carboxylate/methyl 1-(3-chloropyridin-2-yl)-3-{(E)-2-[5-(trifluoromethyl)-1H-tetrazol-1-yl]vinyl}-1H-pyrazole-5-carboxylate [Example No. XIII]

chromatographic logP [1]: 2.18
Compound: COC(=O)c1cc([N+](=O)[O-])nn1-c1ncccc1Cl [Example No. XVIII, Methyl 1-(3-chloropyridin-2-yl)-3-nitro-1H-pyrazole-5-carboxylate]

chromatographic logP [2]: 4
Compound: Cc1cc(Cl)cc(C(=O)NC(C)C)c1NC(=O)c1cc(CNS(=O)(=O)c2ccc(C(F)(F)F)c(C(F)(F)F)c2)nn1-c1ncccc1Cl [Example 54]

chromatographic logP [1]: 3.33
Compound: COC(=O)c1cc(C(=O)c2ccc(C(F)(F)F)nc2)nn1-c1ncccc1Cl [Example No. VIII-c, methyl 1-(3-chloropyridin-2-yl)-3-{[6-(trifluoromethyl)pyridin-3-yl]carbonyl}-1H-pyrazole-5-carboxylate]

chromatographic logP [1]: 2.87
Compound: CCOC(=O)c1cc(C(=O)CBr)nn1-c1ncccc1Cl [Example No. VIII-a, ethyl 3-(bromoacetyl)-1-(3-chloropyridin-2-yl)-1H-pyrazole-5-carboxylate]

chromatographic logP [2]: 3.63
Compound: Cc1cc(Cl)cc(C(=O)NC(C)C)c1NC(=O)c1cc(CNS(=O)(=O)c2c(C(F)(F)F)cccc2C(F)(F)F)nn1-c1ncccc1Cl [Example 41]

chromatographic logP [1]: 3.14
Compound: COC(=O)c1cc(Nc2ccc(C(F)(F)F)cn2)nn1-c1ncccc1Cl [Example No. XX, Methyl 1-(3-chloropyridin-2-yl)-3-{[5-(trifluoromethyl)pyridin-2-yl]amino}-1H-pyrazole-5-carboxylate]

chromatographic logP [1]: 2.33
Compound: O=C(c1ccc(C(F)(F)F)nc1)c1cc(C(=O)O)n(-c2ncccc2Cl)n1 [Example No. III-6, 1-(3-chloropyridin-2-yl)-3-{[6-(trifluoromethyl)pyridin-3-yl]carbonyl}-1H-pyrazole-5-carboxylic acid]

chromatographic logP [2]: 4.1
Compound: Cc1cc(Cl)cc(C(=O)NC(C)C)c1NC(=O)c1cc(CNS(=O)(=O)c2cc(C(F)(F)F)cc(C(F)(F)F)c2)nn1-c1ncccc1Cl [Example 35]

chromatographic logP [1]: 1.82
Compound: COC(=O)c1cc(C=O)nn1-c1ncccc1Cl [Example No. VII-e, methyl 1-(3-chloropyridin-2-yl)-3-formyl-1H-pyrazole-5-carboxylate]

chromatographic logP [2]: 4.54
Compound: Cc1cc(Cl)cc(C(=O)NC(C)C2CC2)c1NC(=O)c1cc(CN(Cc2cc(C(F)(F)F)cc(C(F)(F)F)c2)S(C)(=O)=O)nn1-c1ncccc1Cl (centres unmarked) [Example 58]

logP [3]: 2.64 and 2.68
Compound: Methyl 1-(3-chloropyridin-2-yl)-3-{1-hydroxy-2-[5-(trifluoromethyl)-2H-tetrazol-2-yl]ethyl}-1H-pyrazole-5-carboxylate/methyl 1-(3-chloropyridin-2-yl)-3-{1-hydroxy-2-[5-(trifluoromethyl)-1H-tetrazol-1-yl]ethyl}-1H-pyrazole-5-carboxylate [Example No. XII]

logP [3]: 2.79 and 2.86
Compound: 1-(3-Chloropyridin-2-yl)-3-{(E)-2-[5-(trifluoromethyl)-2H-tetrazol-2-yl]vinyl}-1H-pyrazole-5-carboxylic acid/1-(3-chloropyridin-2-yl)-3-{(E)-2-[5-(trifluoromethyl)-1H-tetrazol-1-yl]vinyl}-1H-pyrazole-5-carboxylic acid [Example No. XIV]
